Results reported in the supplement of paper PMC10599287.

What was measured:
[1] = compound: CCNC(=O)C#Cc1ccc2c(C(=Nc3ccc(CN(C)C)cc3)c3ccccc3)c(O)[nH]c2c1; test: absolute IC70 (antiproliferative, propidium iodide); higher = less potent; conditions: exposure time: 4 days
Protocol: (§1)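 Modified propidium iodide survival/proliferation assay in 294 human tumor cell lines (2D monolayer for solid tumors, suspension for hematologic lines) after 4 days of continuous exposure to 10 concentrations in half-log steps from 0.001 to 30 µM. Absolute IC70 was fitted by four-parameter nonlinear regression of T/C × 100 (%) values; 30 µM is the top dose.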

GDC-0623 = compound: O=C(NOCCO)c1ccc2cncn2c1Nc1ccc(I)cc1F [GDC-0623]; test: as above; conditions: exposure time: 4 days
Protocol: as §1

Hs 729
absolute IC70 [1]: 8020 nM
absolute IC70 (GDC-0623): > 30000 nM

IGROV-1
absolute IC70 [1]: 1870 nM
absolute IC70 (GDC-0623): > 30000 nM

IM95
absolute IC70 [1]: 12200 nM
absolute IC70 (GDC-0623): > 30000 nM

IM-9
absolute IC70 [1]: 7 nM
absolute IC70 (GDC-0623): 15 nM

JHH-6
absolute IC70 [1]: 1140 nM
absolute IC70 (GDC-0623): > 30000 nM

JIMT-1
absolute IC70 [1]: 1900 nM
absolute IC70 (GDC-0623): > 30000 nM

JURKAT
absolute IC70 [1]: 2330 nM
absolute IC70 (GDC-0623): > 30000 nM

JURL-MK1
absolute IC70 [1]: 149 nM
absolute IC70 (GDC-0623): 11 nM

K-562
absolute IC70 [1]: 2820 nM
absolute IC70 (GDC-0623): > 30000 nM

KCL-22
absolute IC70 [1]: 250 nM
absolute IC70 (GDC-0623): > 30000 nM

KG-1
absolute IC70 [1]: 33 nM
absolute IC70 (GDC-0623): 25100 nM

KLE
absolute IC70 [1]: 5420 nM
absolute IC70 (GDC-0623): > 30000 nM

KM12
absolute IC70 [1]: 386 nM
absolute IC70 (GDC-0623): 15100 nM

KM20L2
absolute IC70 [1]: 186 nM
absolute IC70 (GDC-0623): 51.8 nM

KM-H2
absolute IC70 [1]: 2770 nM
absolute IC70 (GDC-0623): > 30000 nM

KU-19-19
absolute IC70 [1]: 56 nM
absolute IC70 (GDC-0623): 22 nM

KYSE-70
absolute IC70 [1]: 1040 nM
absolute IC70 (GDC-0623): > 30000 nM

KYSE-150
absolute IC70 [1]: 2820 nM
absolute IC70 (GDC-0623): > 30000 nM

KYSE-180
absolute IC70 [1]: 1000 nM
absolute IC70 (GDC-0623): > 30000 nM

KYSE-520
absolute IC70 [1]: 525 nM
absolute IC70 (GDC-0623): 158 nM

L-363
absolute IC70 [1]: 692 nM
absolute IC70 (GDC-0623): > 30000 nM

LEXFAL_2665
absolute IC70 [1]: 223 nM
absolute IC70 (GDC-0623): > 30000 nM

LEXFAM_2531
absolute IC70 [1]: 26 nM
absolute IC70 (GDC-0623): > 30000 nM

LIM2405
absolute IC70 [1]: 31.6 nM
absolute IC70 (GDC-0623): 5.96 nM

LIM2551
absolute IC70 [1]: 7.49 nM
absolute IC70 (GDC-0623): 3.68 nM

LIXFC_575
absolute IC70 [1]: 654 nM
absolute IC70 (GDC-0623): 3010 nM

LN-229
absolute IC70 [1]: 281 nM
absolute IC70 (GDC-0623): 102 nM

LOU-NH91
absolute IC70 [1]: 2140 nM
absolute IC70 (GDC-0623): > 30000 nM

LOVO
absolute IC70 [1]: 3680 nM
absolute IC70 (GDC-0623): > 30000 nM

LP-1
absolute IC70 [1]: 2160 nM
absolute IC70 (GDC-0623): > 30000 nM

LS174T
absolute IC70 [1]: 40.4 nM
absolute IC70 (GDC-0623): 72.3 nM

LXFA_289
absolute IC70 [1]: 1790 nM
absolute IC70 (GDC-0623): > 30000 nM

LXFA_526
absolute IC70 [1]: 739 nM
absolute IC70 (GDC-0623): 1320 nM

LXFA_586
absolute IC70 [1]: 106 nM
absolute IC70 (GDC-0623): > 30000 nM

LXFA_623
absolute IC70 [1]: 960 nM
absolute IC70 (GDC-0623): 1010 nM

LXFA_629
absolute IC70 [1]: 750 nM
absolute IC70 (GDC-0623): > 30000 nM

LXFA_677
absolute IC70 [1]: 269 nM
absolute IC70 (GDC-0623): 168 nM

LXFA_737
absolute IC70 [1]: 225 nM
absolute IC70 (GDC-0623): > 30000 nM

LXFA_923
absolute IC70 [1]: 24400 nM
absolute IC70 (GDC-0623): > 30000 nM

LXFA_983
absolute IC70 [1]: 202 nM
absolute IC70 (GDC-0623): 18500 nM

LXFA_1647
absolute IC70 [1]: 248 nM
absolute IC70 (GDC-0623): 221 nM

LXFE_66
absolute IC70 [1]: 3910 nM
absolute IC70 (GDC-0623): > 30000 nM

LXFL_529
absolute IC70 [1]: 329 nM
absolute IC70 (GDC-0623): 233 nM

LXFL_1072
absolute IC70 [1]: 481 nM
absolute IC70 (GDC-0623): 16200 nM

LXFL_1121
absolute IC70 [1]: 743 nM
absolute IC70 (GDC-0623): > 30000 nM

LXFL_1674
absolute IC70 [1]: 1050 nM
absolute IC70 (GDC-0623): > 30000 nM

M059K
absolute IC70 [1]: 1150 nM
absolute IC70 (GDC-0623): > 30000 nM

MAXF_401
absolute IC70 [1]: 28 nM
absolute IC70 (GDC-0623): 730 nM

MCF7
absolute IC70 [1]: 281 nM
absolute IC70 (GDC-0623): > 30000 nM

MCF 10A
absolute IC70 [1]: 31 nM
absolute IC70 (GDC-0623): 48 nM

MDA-MB-231
absolute IC70 [1]: 120 nM
absolute IC70 (GDC-0623): 78 nM

MDA-MB-453
absolute IC70 [1]: 2480 nM
absolute IC70 (GDC-0623): > 30000 nM

MDA-MB-468
absolute IC70 [1]: 347 nM
absolute IC70 (GDC-0623): 2240 nM

MDST8
absolute IC70 [1]: 55.5 nM
absolute IC70 (GDC-0623): 6.01 nM

MEC-1
absolute IC70 [1]: 34 nM
absolute IC70 (GDC-0623): > 30000 nM

MEG-01
absolute IC70 [1]: 20 nM
absolute IC70 (GDC-0623): 8 nM

MEXF_276
absolute IC70 [1]: 38 nM
absolute IC70 (GDC-0623): 8 nM

MEXF_394
absolute IC70 [1]: 42 nM
absolute IC70 (GDC-0623): 4 nM

MEXF_462
absolute IC70 [1]: 25 nM
absolute IC70 (GDC-0623): 7170 nM

MEXF_520
absolute IC70 [1]: 99 nM
absolute IC70 (GDC-0623): 5400 nM

MEXF_535
absolute IC70 [1]: 99 nM
absolute IC70 (GDC-0623): 5 nM

MEXF_622
absolute IC70 [1]: 227 nM
absolute IC70 (GDC-0623): 40 nM

MEXF_1341
absolute IC70 [1]: 482 nM
absolute IC70 (GDC-0623): 26 nM

MEXF_1539
absolute IC70 [1]: 39 nM
absolute IC70 (GDC-0623): 3 nM

MEXF_1737
absolute IC70 [1]: 48 nM
absolute IC70 (GDC-0623): 11 nM

MEXF_1792
absolute IC70 [1]: 462 nM
absolute IC70 (GDC-0623): 169 nM

MEXF_1829
absolute IC70 [1]: 90 nM
absolute IC70 (GDC-0623): 19 nM

MEXF_2090
absolute IC70 [1]: 93 nM
absolute IC70 (GDC-0623): 4 nM

MFE-319
absolute IC70 [1]: 370 nM
absolute IC70 (GDC-0623): 5170 nM

MIA-PaCa-2
absolute IC70 [1]: 103 nM
absolute IC70 (GDC-0623): 5 nM

MINO
absolute IC70 [1]: 10 nM
absolute IC70 (GDC-0623): > 30000 nM

MKN1
absolute IC70 [1]: 289 nM
absolute IC70 (GDC-0623): > 30000 nM

MKN7
absolute IC70 [1]: 17500 nM
absolute IC70 (GDC-0623): > 30000 nM

MKN45
absolute IC70 [1]: 489 nM
absolute IC70 (GDC-0623): 79 nM

MM.1R
absolute IC70 [1]: 23 nM
absolute IC70 (GDC-0623): > 30000 nM

MM.1S
absolute IC70 [1]: 9 nM
absolute IC70 (GDC-0623): > 30000 nM

MOLM-1
absolute IC70 [1]: 1590 nM
absolute IC70 (GDC-0623): > 30000 nM

MOLM-6
absolute IC70 [1]: 9 nM
absolute IC70 (GDC-0623): 41 nM

MOLM-13
absolute IC70 [1]: 8 nM
absolute IC70 (GDC-0623): 448 nM

MOLP-2
absolute IC70 [1]: 3650 nM
absolute IC70 (GDC-0623): > 30000 nM

MOLT-3
absolute IC70 [1]: 6 nM
absolute IC70 (GDC-0623): > 30000 nM

MOLT-4
absolute IC70 [1]: 4 nM
absolute IC70 (GDC-0623): > 30000 nM

MSTO-211H
absolute IC70 [1]: 494 nM
absolute IC70 (GDC-0623): 1480 nM

MV4-11
absolute IC70 [1]: 8 nM
absolute IC70 (GDC-0623): 1320 nM

NALM-33
absolute IC70 [1]: 7 nM
absolute IC70 (GDC-0623): > 30000 nM

NCI-H69
absolute IC70 [1]: 1340 nM
absolute IC70 (GDC-0623): > 30000 nM

NCI-H82
absolute IC70 [1]: 2330 nM
absolute IC70 (GDC-0623): > 30000 nM

NCI-H322M
absolute IC70 [1]: 391 nM
absolute IC70 (GDC-0623): 105 nM

NCI-H345
absolute IC70 [1]: 11800 nM
absolute IC70 (GDC-0623): > 30000 nM

NCI-H441
absolute IC70 [1]: 1340 nM
absolute IC70 (GDC-0623): > 30000 nM

NCI-H460
absolute IC70 [1]: 11 nM
absolute IC70 (GDC-0623): > 30000 nM

NCI-H522
absolute IC70 [1]: 102 nM
absolute IC70 (GDC-0623): 30000 nM

NCI-H727
absolute IC70 [1]: 325 nM
absolute IC70 (GDC-0623): 23 nM

NCI-H929
absolute IC70 [1]: 43 nM
absolute IC70 (GDC-0623): 10 nM

NCI-H1184
absolute IC70 [1]: 815 nM
absolute IC70 (GDC-0623): > 30000 nM

NCI-H1299
absolute IC70 [1]: 1180 nM
absolute IC70 (GDC-0623): > 30000 nM

NCI-H1975
absolute IC70 [1]: 409 nM
absolute IC70 (GDC-0623): > 30000 nM

NCI-H2171
absolute IC70 [1]: 24 nM
absolute IC70 (GDC-0623): > 30000 nM

NOMO-1
absolute IC70 [1]: 10 nM
absolute IC70 (GDC-0623): > 30000 nM

NUGC-4
absolute IC70 [1]: 329 nM
absolute IC70 (GDC-0623): 8 nM

OCI-AML2
absolute IC70 [1]: 7 nM
absolute IC70 (GDC-0623): < 1 nM

OCI-AML3
absolute IC70 [1]: 6 nM
absolute IC70 (GDC-0623): < 1 nM
